# Where a SMILES comes first, the peptide text is derived from it. The star is where a group is joined. Cbz = O=C(OCc1ccccc1)*; CH2F = FC*
# Key:
# commissural neurons = experiment: dorsal spinal cord survival assay (commissural explant cultures); type: cell-based, rat
# Procedure: To examine functional roles of DR6 in axonal degeneration and programmed cell death of commissural neurons, an RNAi-based dorsal spinal cord survival assay (Kennedy et al., Cell, 78:425-435 (1994); Wang et al., supra, 1999) was conducted (see FIG. 3). E13 rat or E11.5 mouse embryos were placed in L15 medium (Gibco) and siRNAs (IDT) together with green fluorescent protein (“GFP”)-encoding plasmids were injected into the neural tubes. The siRNAs and plasmids were then delivered to dorsal progenitor cells by electroporation. Dorsal spinal cord explants were dissected out, embedded into a 3D-collagen gel matrix, and cultured in Opti-MEM/F12 medium (Invitrogen) with recombinant netrin-1 ([…]) and 5% horse serum (Sigma) at 37° C. in a 5% CO2 environment. Within 16 hours in response to chemo-attractant netrin-1, commissural axons grow out of the explant into the collagen matrix gel (Kennedy et al., supra, 1994). Commissural axons are visualized by GFP fluorescence by observation using an inverted microscope.
# Materials and methods used to generate the data shown in this figure are as follows. To investigate physiological roles of DR6 receptor in axonal degeneration and programmed cell death of commissural neurons, a dorsal spinal cord survival assay according to protocols known in the art (Kennedy et al., Cell 78:425-435 (1994); Wang et al., Nature 401:765-769 (1999)) was performed (with data shown in FIG. 4B). E13 rat embryos were placed in L15 medium (Gibco) and injected into their neural tubes with the following siRNA constructs (FIG. 4B):
# Control non-targeting, or targeting DR6 siRNA #2, or targeting DR6 siRNA #3 (IDT) together with either wild-type or mis-match DR6 cDNA and GFP-encoding plasmids. DR6 cDNA and GFP cDNA were subcloned into pCAGGS vector backbone (commercially available from BCCM/LMBP). siRNAs and plasmids were then delivered to dorsal progenitor cells by electroporation. Dorsal spinal cord explants were then dissected out, embedded into a 3D collagen gel matrix and cultured in Opti-MEM/F12 medium (Invitrogen) with recombinant netrin-1 and 5% horse serum (Sigma) at 37° C. in a 5% CO2 environment. Within 16 hours in response to chemo-attractant netrin-1 commissural axons grow out of the explant into the collagen matrix gel (Kennedy et al., Cell 78:425-435 (1994). Commissural axons are visualized by GFP fluorescence by observation using inverted microscope. After 48 hours in culture in the absence of trophic factor support derived from the floorplate, commissural neurons undergo programmed cell death and their axons degenerate (Wang et al., Nature, 401:765-769 (1999)) (FIG. 4B). However, the axonal degeneration program can be blocked by introduction of a targeting DR6-specific siRNA #3 (FIG. 4B). The specific, on-target effect of DR6-specific siRNA #3 is further confirmed in a rescue experiment in which axonal degeneration phenotype is restored by co-expression of the siRNA#3-resistant mis-match DR6 cDNA construct together with DR6 siRNA #3 (FIG. 4B). Presented experimental evidence establishes that DR6 receptor function is required for axonal degeneration and death of commissural neurons upon withdrawal from their intermediate target, the floorplate of the spinal cord.
# A dorsal spinal cord survival assay (as described in Example 2 above) was conducted using anti-DR6 antibodies. Microscopic observation (using green fluorescence channel for GFP) was employed to visualize commissural axons. […]
# sensory axons = experiment: NGF deprivation assay in Campenot chambers (local sensory axon degeneration); type: cell-based, mouse; conditions: for sensory axonal degeneration induced by NGF withdrawal: 30 μg/ml hDR6-ECD-Fc in axonal compartment, 0 to 24 hours
# Procedure: Materials and methods used to generate the data shown in this figure are as follows. To examine whether ligand is required for DR6 function in sensory axonal degeneration, a compartmented culture analysis of sensory axon growth and degeneration was carried out as follows. A Campenot nerve cell chamber system was used to isolate neuronal processes (axons) from the cell bodies in different compartments (separate fluid environments), analogous to neuronal cell bodies in one location of the nervous system projecting their axons to a distal target in another location. The assay was carried out as originally described by Campenot (Campenot et al., J. Neurosci. 11(4): 1126-39 (1991)) with the following modifications. Briefly, 35-mm tissue culture dishes were coated with PDL/Laminin and scratched with a pin rake (Tyler Research) to generate tracks, as illustrated for example in FIGS. 1 and 4 of Campenot et al., supra.
# A drop of culture medium (Neurobasal medium with B27 supplement, 25 ng/ml of NGF, and 4 g/L of methylcellulose) was placed on the scratched substratum. A Teflon divider (Tyler Research) was seated on silicone grease and a dab of silicone grease was placed at the mouth of the center slot. Dissociated sensory neurons derived from E12.5 mouse DRGs were suspended in methylcellulose-thickened medium and loaded into a disposable sterile syringe fitted with a 22-gauge needle. This cell suspension was injected into the center slots of each compartmented dish under the dissecting microscope. The neurons were allowed to settle overnight. […]
# To trigger local axonal degeneration, NGF-containing medium from axonal compartments was substituted with neurobasal medium with an NGF blocking antibody (anti-NGF, Genentech, Inc., 20 ug/ml). Zero hours, 6 hours, or 24 to 48 hours following NGF deprivation, sensory neurons were fixed in 4% PFA for 30 minutes at room temperature and processed for immunofluorescence staining with axonal marker TUJ-1 (Covance, 1:500 dilution) to visualize degenerating axons by fluorescence microscopy (FIG. 11B) (as above described in Example 7). […]
# To examine whether ligand is required for DR6 function in axonal degeneration program triggered by NGF withdrawal, 30 μg/ml of hDR6-ECD-Fc immunoadhesin protein (described in Example 3 above) or 30 μg/ml of a control Fc (Genentech, Inc.) was included together with anti-NGF treatment in axonal compartments of Campenot Chambers. Zero to 24 hours after NGF deprivation, axons in Campenot Chambers were fixed with 4% PFA/PBS and visualized by immuno-fluorescence staining with TUJ-1 (1:500, Covance)/secondary antibody conjugated to a fluorescence group Alexa 488 (Molecular Probes, BD) (FIG. 11B). […]
# [1] = molecular target: p75 (as used in the ELISA and in general statements); experiment: ELISA, format not described (data not shown)
# [2] = system: DR6-AP binding sites on BAX null sensory axons; experiment: in situ DR6-AP sensory axon binding assay; type: cell-based, mouse; conditions: BACE inhibitor 1 uM; BAX null E12.5 sensory axons
# Procedure: For the in situ DR6-AP sensory axon binding assay, either wild-type or Bax null sensory explants were cultured in Neurobasal medium/B27 (Invitrogen) as outlined in the Examples 7-8 above, with 50 ng/mlNGF (Roche). Two days post-plating, DRG explants were either left untreated or deprived from NGF as described above in Examples 7-8. Bax inhibitory peptide was added where indicated on FIG. 12B (10 uM, Bax-V5, Tocris). Twelve hours post-NGF deprivation, DRG explants were washed twice with the binding buffer (HBSS, Gibco Cat. No. 14175-095, with 0.2% BSA, 0.1% NaN3, 5 mM CaCl2, 1 mM MgCl2, 20 mM HEPES, pH=7.0). AP binding assay was then carried out by making a 1:1 mixture of DR6-AP conditioned medium and the binding buffer (or control AP conditioned medium and the binding buffer), which was applied directly to DRG explants in 8-well culture slides (Becton, Dickinson and Company) and incubated for 90 minutes at room temperature.
# Following the incubation, unbound DR6-AP proteins were washed away by rinsing DRG explants five times with the binding buffer. DRG explants were then fixed with 3.7% formaldehyde diluted in PBS, for 12 minutes at room temperature. The remaining formaldehyde was removed by rinsing DRG explants 3 times with HBS buffer (20 mM HEPES pH=7.0, 150 mM NaCl). Endogenous AP activity was blocked by heat inactivation at 65° C. in HBS buffer for 30 minutes. […]
compound,measurement,setting,value
5′-CAAUAGGUCAGGAAGAUGGCU-3′ [DR6-specific siRNA #3],axonal degeneration of commissural neurons,"commissural neurons; siRNA electroporated, 48 hours in culture without floorplate trophic support",blocked
CC[C@H](C)[C@H](NC(=O)OCc1ccccc1)C(=O)N[C@@H](CCC(=O)OC)C(=O)N[C@H](C(=O)N[C@@H](CC(=O)OC)C(=O)CF)[C@@H](C)O [Z-IETD-FMK] (Cbz-IE(OMe)TD(OMe)-CH2F),axonal degeneration after NGF deprivation,"sensory axons; 24 hours anti-NGF, SP 600125 1 uM, Z-IETD-FMK 10 uM, Z-DEVD-FMK 10 uM",delayed
(L)-HIV-TAT48-57-PP-JBD20 [L-JNK-I],stereotyped degeneration of commissural neurons in DSC explant cultures,"commissural neurons; JNK inhibitor at 10 μM, 48 hr, no trophic factor, listed as L-JNKI-1",largely blocks stereotyped degeneration
same,axonal degeneration of commissural neurons,commissural neurons; peptide JNK inhibitor at 1 μM,partially blocked axonal degeneration
APP (as used in the p75 ELISA) (from UniProt P05067 18-286) (ligand),EC50,[1],300 nM
"Abeta: recombinant human Beta amyloid amino acids 1-42, Chemicon",induction of commissural axonal degeneration,commissural neurons; Abeta 1-42 3 μM added 24 hours after plating with BACE inhibitor 1 uM,axonal degeneration triggered
OM99-2,disappearance of DR6-AP binding sites from sensory axons following NGF withdrawal,[2],block the disappearance of DR6-AP binding sites
same,axonal degeneration after NGF deprivation,sensory axons; BACE inhibitor 1 uM,blocked
"hDR6-ECD-Fc: human DR6 extracellular domain sequence fused with Fc, SEQ ID NO: 4",commissural axon degeneration,"commissural neurons; 30 μg/ml and 10 μg/ml hDR6-ECD-Fc, 48 hours",delayed
same,sensory axonal degeneration induced by NGF withdrawal,sensory axons,delayed the onset of axonal degeneration
same,sensory axonal degeneration induced by NGF withdrawal,sensory axons; listed as DR6-Fc,delayed

# Source: US20120076785A1, “METHOD FOR INHIBITING NEURODEGENERATION” (GENENTECH, INC., priority 2009, published 2012)
